Laboratory results taken from publication PMC12406203 (Journal of Medicinal Chemistry, 2025).

Key:
Assay in all cases: KINOMEscan
Assay type in all cases: binding
[1] = target: T1, INSR (Homo sapiens, UniProt P06213)
T1 construct: purchased Eurofins DiscoverX, LLC; host or cells: E. coli (T7 phage) or HEK-293

[2] = target: T2, RSK2 (Kin.Dom.1-N-terminal) (Homo sapiens, UniProt P51812)
T2 construct: RSK2 (Kin.Dom.1-; purchased Eurofins DiscoverX, LLC; host or cells: E. coli BL21-derived host (T7 phage) or HEK-293
T2 sequence (P51812 68-327 limits assumed): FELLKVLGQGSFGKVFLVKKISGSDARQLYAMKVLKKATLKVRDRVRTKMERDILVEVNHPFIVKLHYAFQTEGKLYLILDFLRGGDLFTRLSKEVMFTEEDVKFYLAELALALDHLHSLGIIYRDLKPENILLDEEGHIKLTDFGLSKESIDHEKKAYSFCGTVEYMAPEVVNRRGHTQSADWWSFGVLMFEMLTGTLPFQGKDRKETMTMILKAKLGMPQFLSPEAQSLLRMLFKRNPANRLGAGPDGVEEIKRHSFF

[3] = target: T3, JNK1 (Homo sapiens, UniProt P45983)
T3 construct: purchased Eurofins DiscoverX, LLC; host or cells: E. coli (BL21-derived, T7 phage) or HEK-293
T3 sequence (P45983 whole entry): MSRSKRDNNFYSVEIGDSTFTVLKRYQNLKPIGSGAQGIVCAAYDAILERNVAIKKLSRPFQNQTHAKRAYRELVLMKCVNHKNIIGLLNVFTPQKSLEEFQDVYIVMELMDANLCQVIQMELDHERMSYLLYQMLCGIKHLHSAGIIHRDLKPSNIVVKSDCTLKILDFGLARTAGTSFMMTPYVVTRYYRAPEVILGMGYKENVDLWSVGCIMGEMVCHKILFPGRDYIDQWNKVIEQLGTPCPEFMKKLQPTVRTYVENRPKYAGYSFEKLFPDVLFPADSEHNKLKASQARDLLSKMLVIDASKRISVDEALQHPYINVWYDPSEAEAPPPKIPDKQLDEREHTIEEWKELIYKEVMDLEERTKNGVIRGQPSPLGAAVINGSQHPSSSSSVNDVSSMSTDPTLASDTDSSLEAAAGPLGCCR

[4] = target: T4, CDK2 (Homo sapiens, UniProt P24941)
T4 construct: purchased Eurofins DiscoverX, LLC; host or cells: E. coli BL21-derived (T7 phage) or HEK-293

[5] = target: T5, JAK3(JH1domain-catalytic) (Homo sapiens, UniProt P52333)
T5 construct: JAK3(JH1domain-; purchased Eurofins DiscoverX, LLC; host or cells: E. coli (T7 phage) or HEK-293

[6] = target: T6, TIE2 (Homo sapiens, UniProt Q02763)
T6 construct: purchased Eurofins DiscoverX, LLC; host or cells: E. coli BL21-derived host (T7 phage) or HEK-293

[7] = target: T7, p38δ (Homo sapiens, UniProt O15264)
T7 construct: purchased Eurofins DiscoverX, LLC; host or cells: E. coli (BL21-derived, T7 phage) or HEK-293
T7 sequence (O15264 1-365): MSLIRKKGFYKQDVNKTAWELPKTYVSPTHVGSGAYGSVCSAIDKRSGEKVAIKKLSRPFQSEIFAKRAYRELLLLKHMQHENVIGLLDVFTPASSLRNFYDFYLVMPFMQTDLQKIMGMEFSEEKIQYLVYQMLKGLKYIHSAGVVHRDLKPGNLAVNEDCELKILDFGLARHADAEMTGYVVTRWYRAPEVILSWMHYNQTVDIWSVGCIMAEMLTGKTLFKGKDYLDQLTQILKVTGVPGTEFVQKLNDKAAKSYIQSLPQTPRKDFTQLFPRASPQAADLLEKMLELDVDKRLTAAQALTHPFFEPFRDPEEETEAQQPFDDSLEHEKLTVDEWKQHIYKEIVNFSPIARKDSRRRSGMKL

[8] = target: T8, PIK3C2B (Homo sapiens, UniProt O00750)
T8 construct: purchased Eurofins DiscoverX, LLC; host or cells: E. coli BL21-derived host (T7 phage) or HEK-293
T8 sequence (O00750 whole entry): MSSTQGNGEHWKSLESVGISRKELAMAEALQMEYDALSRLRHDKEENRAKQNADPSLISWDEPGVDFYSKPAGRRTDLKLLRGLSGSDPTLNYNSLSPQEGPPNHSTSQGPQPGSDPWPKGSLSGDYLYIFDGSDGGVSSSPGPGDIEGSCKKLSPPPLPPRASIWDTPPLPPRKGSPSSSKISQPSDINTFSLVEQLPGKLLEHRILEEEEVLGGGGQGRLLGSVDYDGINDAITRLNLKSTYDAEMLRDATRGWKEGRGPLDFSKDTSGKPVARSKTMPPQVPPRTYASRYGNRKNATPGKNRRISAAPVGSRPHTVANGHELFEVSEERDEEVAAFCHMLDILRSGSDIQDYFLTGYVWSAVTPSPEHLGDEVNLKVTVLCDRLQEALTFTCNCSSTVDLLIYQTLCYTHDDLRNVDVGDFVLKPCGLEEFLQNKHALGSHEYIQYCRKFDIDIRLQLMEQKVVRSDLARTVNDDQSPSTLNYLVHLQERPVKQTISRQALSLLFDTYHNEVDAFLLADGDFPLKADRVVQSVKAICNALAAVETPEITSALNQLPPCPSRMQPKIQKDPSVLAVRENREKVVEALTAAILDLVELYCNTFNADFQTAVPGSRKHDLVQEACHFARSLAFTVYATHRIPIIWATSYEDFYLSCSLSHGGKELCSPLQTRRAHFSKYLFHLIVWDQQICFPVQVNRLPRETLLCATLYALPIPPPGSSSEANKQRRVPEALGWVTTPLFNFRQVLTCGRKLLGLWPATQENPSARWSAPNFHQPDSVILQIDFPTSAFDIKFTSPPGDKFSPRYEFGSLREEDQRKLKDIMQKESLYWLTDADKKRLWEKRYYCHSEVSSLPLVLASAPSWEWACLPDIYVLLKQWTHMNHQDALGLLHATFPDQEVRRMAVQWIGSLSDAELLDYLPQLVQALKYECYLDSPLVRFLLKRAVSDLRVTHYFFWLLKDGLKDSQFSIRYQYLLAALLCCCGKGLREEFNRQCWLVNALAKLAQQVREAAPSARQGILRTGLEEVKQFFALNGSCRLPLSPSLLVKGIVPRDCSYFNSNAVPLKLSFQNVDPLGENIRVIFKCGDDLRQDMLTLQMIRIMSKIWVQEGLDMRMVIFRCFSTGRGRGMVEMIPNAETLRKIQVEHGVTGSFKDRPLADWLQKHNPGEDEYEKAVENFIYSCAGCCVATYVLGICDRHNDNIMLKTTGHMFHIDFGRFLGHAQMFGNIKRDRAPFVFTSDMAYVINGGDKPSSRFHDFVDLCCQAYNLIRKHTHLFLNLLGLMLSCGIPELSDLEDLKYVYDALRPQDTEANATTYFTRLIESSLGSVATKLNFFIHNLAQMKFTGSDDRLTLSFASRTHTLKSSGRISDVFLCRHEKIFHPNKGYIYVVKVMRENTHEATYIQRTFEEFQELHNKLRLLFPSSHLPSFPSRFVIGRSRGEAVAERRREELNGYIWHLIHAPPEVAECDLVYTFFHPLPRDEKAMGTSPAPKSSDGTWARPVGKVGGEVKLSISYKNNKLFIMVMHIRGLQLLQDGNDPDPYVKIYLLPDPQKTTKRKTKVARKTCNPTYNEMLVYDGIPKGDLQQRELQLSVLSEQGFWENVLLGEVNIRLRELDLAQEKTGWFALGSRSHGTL

[9] = target: T9, VEGFR2 (Homo sapiens, UniProt P35968)
T9 construct: purchased Eurofins DiscoverX, LLC; host or cells: E. coli BL21-derived host (T7 phage) or HEK-293

[10] = target: T10, PAK4 (Homo sapiens, UniProt O96013)
T10 construct: purchased Eurofins DiscoverX, LLC; host or cells: E. coli BL21-derived host (T7 phage) or HEK-293
T10 sequence (O96013 whole entry): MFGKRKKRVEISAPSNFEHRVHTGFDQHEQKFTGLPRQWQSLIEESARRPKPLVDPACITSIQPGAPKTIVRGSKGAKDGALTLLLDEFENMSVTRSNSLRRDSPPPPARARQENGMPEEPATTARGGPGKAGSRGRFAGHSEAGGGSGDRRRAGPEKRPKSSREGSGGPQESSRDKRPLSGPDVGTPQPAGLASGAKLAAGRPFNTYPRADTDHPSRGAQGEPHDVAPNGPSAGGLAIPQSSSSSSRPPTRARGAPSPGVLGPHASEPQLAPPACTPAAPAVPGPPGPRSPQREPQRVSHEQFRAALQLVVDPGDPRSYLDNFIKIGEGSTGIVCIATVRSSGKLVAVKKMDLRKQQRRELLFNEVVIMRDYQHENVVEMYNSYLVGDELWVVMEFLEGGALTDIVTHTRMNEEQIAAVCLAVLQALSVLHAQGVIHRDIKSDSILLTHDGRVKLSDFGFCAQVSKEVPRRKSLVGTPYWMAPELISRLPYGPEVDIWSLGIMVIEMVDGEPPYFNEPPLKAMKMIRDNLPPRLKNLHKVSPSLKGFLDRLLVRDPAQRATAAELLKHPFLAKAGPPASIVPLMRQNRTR

[11] = target: T11, AXL (Homo sapiens, UniProt P30530)
T11 construct: purchased Eurofins DiscoverX, LLC; host or cells: E. coli BL21-derived (T7 phage) or HEK-293
T11 sequence (P30530 26-894): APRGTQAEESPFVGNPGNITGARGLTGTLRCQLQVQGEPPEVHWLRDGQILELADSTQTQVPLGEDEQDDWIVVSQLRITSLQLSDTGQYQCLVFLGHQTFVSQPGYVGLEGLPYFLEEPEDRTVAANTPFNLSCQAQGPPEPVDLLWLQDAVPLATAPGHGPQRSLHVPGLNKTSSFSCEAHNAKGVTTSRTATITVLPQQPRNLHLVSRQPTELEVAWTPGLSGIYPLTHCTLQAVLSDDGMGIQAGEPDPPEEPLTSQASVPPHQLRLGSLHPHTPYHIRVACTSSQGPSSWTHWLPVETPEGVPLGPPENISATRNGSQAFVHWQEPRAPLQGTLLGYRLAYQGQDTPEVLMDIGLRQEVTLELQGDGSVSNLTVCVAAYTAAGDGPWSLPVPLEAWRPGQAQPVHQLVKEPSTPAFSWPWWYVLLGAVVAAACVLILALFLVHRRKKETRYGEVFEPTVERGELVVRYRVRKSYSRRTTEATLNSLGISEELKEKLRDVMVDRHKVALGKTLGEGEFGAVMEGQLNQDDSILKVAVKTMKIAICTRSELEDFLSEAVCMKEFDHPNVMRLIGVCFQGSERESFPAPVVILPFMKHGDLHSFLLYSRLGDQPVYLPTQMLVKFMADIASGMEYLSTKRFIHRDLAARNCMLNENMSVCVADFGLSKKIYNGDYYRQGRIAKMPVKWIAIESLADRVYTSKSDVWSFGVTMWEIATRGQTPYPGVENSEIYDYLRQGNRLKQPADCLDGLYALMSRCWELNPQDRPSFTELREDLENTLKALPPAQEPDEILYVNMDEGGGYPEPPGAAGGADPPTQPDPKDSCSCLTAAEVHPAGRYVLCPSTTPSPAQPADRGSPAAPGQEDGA

[12] = target: T12, PKACα (Homo sapiens, UniProt P17612)
T12 construct: purchased Eurofins DiscoverX, LLC; host or cells: E. coli BL21-derived host (T7 phage) or HEK-293

[13] = target: T13, RIOK2 (Homo sapiens, UniProt Q9BVS4)
T13 construct: purchased Eurofins DiscoverX, LLC; host or cells: E. coli BL21-derived host (T7 phage) or HEK-293
T13 sequence (Q9BVS4 whole entry): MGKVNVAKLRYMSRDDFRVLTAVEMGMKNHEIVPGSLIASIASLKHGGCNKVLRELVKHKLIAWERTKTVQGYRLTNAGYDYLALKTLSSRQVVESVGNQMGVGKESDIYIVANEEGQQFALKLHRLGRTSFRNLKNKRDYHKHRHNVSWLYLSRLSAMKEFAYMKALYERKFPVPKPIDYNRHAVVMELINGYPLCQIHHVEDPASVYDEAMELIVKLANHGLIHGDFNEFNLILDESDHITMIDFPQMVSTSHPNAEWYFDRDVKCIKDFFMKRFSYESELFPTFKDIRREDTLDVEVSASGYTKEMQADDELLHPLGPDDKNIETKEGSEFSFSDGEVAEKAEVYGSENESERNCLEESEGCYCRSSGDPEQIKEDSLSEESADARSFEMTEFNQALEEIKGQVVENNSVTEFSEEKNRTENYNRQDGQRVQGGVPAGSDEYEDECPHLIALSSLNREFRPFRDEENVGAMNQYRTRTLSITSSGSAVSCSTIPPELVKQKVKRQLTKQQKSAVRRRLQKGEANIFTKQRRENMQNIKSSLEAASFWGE

T1 sequence (P06213 28-1382): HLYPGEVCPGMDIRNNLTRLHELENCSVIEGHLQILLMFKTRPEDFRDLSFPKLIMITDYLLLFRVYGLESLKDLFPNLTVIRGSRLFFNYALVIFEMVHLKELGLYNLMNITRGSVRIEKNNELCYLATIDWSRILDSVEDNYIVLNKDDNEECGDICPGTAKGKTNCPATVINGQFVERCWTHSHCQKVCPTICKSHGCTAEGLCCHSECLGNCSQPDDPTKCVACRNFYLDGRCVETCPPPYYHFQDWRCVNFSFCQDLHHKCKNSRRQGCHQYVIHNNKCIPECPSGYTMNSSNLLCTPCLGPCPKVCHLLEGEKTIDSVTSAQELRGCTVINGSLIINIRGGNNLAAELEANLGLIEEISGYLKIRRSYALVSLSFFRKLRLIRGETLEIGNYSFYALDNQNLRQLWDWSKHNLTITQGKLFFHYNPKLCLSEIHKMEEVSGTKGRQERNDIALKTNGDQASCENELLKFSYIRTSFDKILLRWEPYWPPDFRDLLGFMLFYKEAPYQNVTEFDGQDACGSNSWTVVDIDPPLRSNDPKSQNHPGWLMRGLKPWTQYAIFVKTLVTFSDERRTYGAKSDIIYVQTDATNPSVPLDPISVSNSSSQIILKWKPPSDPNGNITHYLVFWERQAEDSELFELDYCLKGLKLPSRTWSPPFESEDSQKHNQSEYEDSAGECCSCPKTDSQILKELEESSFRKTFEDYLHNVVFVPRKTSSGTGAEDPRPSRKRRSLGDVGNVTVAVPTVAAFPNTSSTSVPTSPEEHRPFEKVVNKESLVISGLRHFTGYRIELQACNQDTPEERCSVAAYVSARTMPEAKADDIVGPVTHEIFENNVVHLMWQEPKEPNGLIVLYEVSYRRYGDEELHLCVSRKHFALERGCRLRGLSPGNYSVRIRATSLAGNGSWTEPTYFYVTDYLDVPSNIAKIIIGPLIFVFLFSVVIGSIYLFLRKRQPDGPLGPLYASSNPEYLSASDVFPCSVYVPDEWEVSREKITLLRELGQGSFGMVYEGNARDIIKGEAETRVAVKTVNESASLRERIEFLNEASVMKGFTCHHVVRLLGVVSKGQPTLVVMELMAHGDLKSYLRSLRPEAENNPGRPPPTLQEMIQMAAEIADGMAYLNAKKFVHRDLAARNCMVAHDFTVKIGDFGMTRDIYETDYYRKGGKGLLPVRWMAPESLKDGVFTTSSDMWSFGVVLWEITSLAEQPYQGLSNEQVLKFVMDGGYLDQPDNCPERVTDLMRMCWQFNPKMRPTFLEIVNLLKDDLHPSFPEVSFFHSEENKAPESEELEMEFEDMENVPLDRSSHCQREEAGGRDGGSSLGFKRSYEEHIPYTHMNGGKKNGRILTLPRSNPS

Row | Compound | RA @ 1000nM [1] | RA @ 10000nM [1] | RA @ 1000nM [2] | RA @ 10000nM [2] | RA @ 1000nM [3] | RA @ 10000nM [3] | RA @ 1000nM [4] | RA @ 10000nM [4] | RA @ 1000nM [5] | RA @ 10000nM [5] | RA @ 1000nM [6] | RA @ 10000nM [6] | RA @ 1000nM [7] | RA @ 10000nM [7] | RA @ 1000nM [8] | RA @ 10000nM [8] | RA @ 1000nM [9] | RA @ 10000nM [9] | RA @ 1000nM [10] | RA @ 10000nM [10] | other results
1 | CN(C)CCNC(=O)c1cc2c(cnn2CC2CCCCC2)cc1Cc1ccc(F)cc1F [Compound 95, 1-(Cyclohexylmethyl)-5-(2,4-difluorobenzyl)-N-(2-(dimethylamino)ethyl)-1H-indazole-6-carboxamide] | 84% | 81% | 94% | 94% | 100% | 27% | 99% | 100% | 100% | 100% | 90% | 100% | 100% | 100% | 91% | 91% | 100% | 100% | 100% | 88% | RA @ 1000nM [11]: 84%; RA @ 10000nM [11]: 83%; RA @ 1000nM [12]: 100%; RA @ 10000nM [12]: 94%; RA @ 1000nM [13]: 88%; RA @ 10000nM [13]: 81%
2 | CC(C)Cn1ncc2cc(Cc3ccc(F)cc3F)c(C(=O)NCCN(C)C)cc21 [Compound 94, 5-(2,4-Difluorobenzyl)-N-(2-(dimethylamino)ethyl)-1-isobutyl-1H-indazole-6-carboxamide] | 81% | 90% | 86% | 65% | 77% | 41% | 82% | 97% | 100% | 100% | 100% | 100% | 97% | 100% | 90% | 82% | 100% | 100% | 97% | 96% | RA @ 1000nM [11]: 97%; RA @ 10000nM [11]: 89%; RA @ 1000nM [12]: 100%; RA @ 10000nM [12]: 96%; RA @ 1000nM [13]: 85%; RA @ 10000nM [13]: 92%
